Read-outs that look alike come from different tables or passages of the source.
Tests used:
[1] = test system: anesthetized dogs; experiment: Cardiovascular effects in anesthetized dogs during combined blockade of alpha and beta adrenergic receptors
Procedure: (§1) Beagles of either sex are anesthetized with sodium thiopental 15 mg/kg + sodium barbital 200 mg/kg + 60 mg of sodium pentobarbital i.v. The trachea is intubated with a cuffed endotracheal tube and connected to a Harvard Respirator Pump set at 20 ml/stroke and 10 strokes/minute. The right femoral artery and vein are exposed and cannulated with polyethylene tubing for measurement of arterial blood pressure and i.v. administration of drugs, respectively. The duration of these experiments is two hours postdrug when drug is administered i.v. and three hours when administered i.d.
The arterial cannula is connected to a Statham P23Gb transducer. Left ventricular cardiac catheterization is accomplished by introducing a Millar microtip pressure transducer into the left carotid artery and advancing it to the left ventricle. The cannula is connected to a Millar TC-100 transducer control unit which is connected to a Beckman voltage/pressure pulse coupler. Ventricular pressure and its first derivative dP/dt are measured simultaneously by wiring the signal output from the left ventricular pressure tracing into a differentiator. […] The proximal lumen of this catheter is in the right atrium when the distal lumen and thermistor have been properly placed in the pulmonary artery. […] Cardiac output is determined by injecting 5 ml of iced 5% dextrose in water into the proximal site (right atrium) and then measuring the temperature change in the pulmonary artery. Using the Stewart-Hamilton equation, the cardiac output can be determined by integrating the area under the thermodilution curve with an Edwards Cardiac Output Computer (model 9520). Heart rate is determined with a Beckman Cardiotach which sums the pressure waves from the pulse pressure curve of the arterial pressure. Lead II EKG is recorded. […] The measurement of these parameters provides information so that the following may be either measured directly or calculated: • 1. […] Central Venous Pressure - CVP measured as right atrial pressure (RAP) mmHg or cmH2O. • 9. […]

[2] = Oral bioavailability studies (absorption, brain:plasma partition)
[3] = test system: anesthetized dog; experiment: Acute cardiovascular hemodynamic evaluation in the anesthetized dog; settings: for CO: cardiac output; for HR: heart rate; for LVEDP: left ventricular end-diastolic pressure; for MAP: mean arterial blood pressure; for RAP: right atrial pressure
Procedure: (Details of test methods used for determining acute cardiovascular hemodynamic effects are presented following the Conclusion section).
as §1
The arterial cannula is connected to a Statham P23Gb transducer. Left ventricular cardiac catheterization is accomplished by introducing a Millar microtip pressure transducer into the left carotid artery and advancing it to the left ventricle. The cannula is connected to a Millar TC-100 transducer control unit which is connected to a Beckman voltage/pressure pulse coupler. Ventricular pressure and its first derivative dP/dt are measured simultaneously by wiring the signal output from the left ventricular pressure tracing into a differentiator. […] The proximal lumen of this catheter is in the right atrium when the distal lumen and thermistor have been properly placed in the pulmonary artery. The signal outputs from the proximal and distal sites are connected to Statham P23BB transducers to measure right atrial pressure (RAP) and pulmonary artery pressure (PAP). Cardiac output is determined by injecting 5 ml of iced 5% dextrose in water into the proximal site (right atrium) and then measuring the temperature change in the pulmonary artery. Using the Stewart-Hamilton equation, the cardiac output can be determined by integrating the area under the thermodilution curve with an Edwards Cardiac Output Computer (model 9520). Heart rate is determined with a Beckman Cardiotach which sums the pressure waves from the pulse pressure curve of the arterial pressure. Lead II EKG is recorded. […] The measurement of these parameters provides information so that the following may be either measured directly or calculated: • 1. Mean Arterial Blood Pressure - MAP (mmHg) • 2. Heart Rate - HR • 3. Cardiac Output - CO (1/minute) • 4. Total Peripheral Resistance - TPR • 5. Cardiac Index - CI (CO/m^2) • 6. Stroke Volume - SV (ml/beat) • 7. Stroke Work - SW (gm-m/beat) • 8. Central Venous Pressure - CVP measured as right atrial pressure (RAP) mmHg or cmH2O. • 9. Left Ventricular End Diastolic Pressure - LVEDP (mmHg) • 10. Rate of Rise of Ventricular Pressure - dP/dt/Pmax This parameter is a better estimate of the contractile state of the myocardium that dP/ dt alone since the former is relatively independent of the loading conditions of the heart (sec^-1). • 11. Plumonary Artery Pressure - PAP (mmHg) • 12. Electrocardiogram - EKG

[4] = Stability on incubation with human plasma at 37°C; format: in vitro ADME; settings: after 4 hours
[5] = target: T1, rat brain AChE (Rattus norvegicus, UniProt P37136)
T1 sequence (P37136 32-614): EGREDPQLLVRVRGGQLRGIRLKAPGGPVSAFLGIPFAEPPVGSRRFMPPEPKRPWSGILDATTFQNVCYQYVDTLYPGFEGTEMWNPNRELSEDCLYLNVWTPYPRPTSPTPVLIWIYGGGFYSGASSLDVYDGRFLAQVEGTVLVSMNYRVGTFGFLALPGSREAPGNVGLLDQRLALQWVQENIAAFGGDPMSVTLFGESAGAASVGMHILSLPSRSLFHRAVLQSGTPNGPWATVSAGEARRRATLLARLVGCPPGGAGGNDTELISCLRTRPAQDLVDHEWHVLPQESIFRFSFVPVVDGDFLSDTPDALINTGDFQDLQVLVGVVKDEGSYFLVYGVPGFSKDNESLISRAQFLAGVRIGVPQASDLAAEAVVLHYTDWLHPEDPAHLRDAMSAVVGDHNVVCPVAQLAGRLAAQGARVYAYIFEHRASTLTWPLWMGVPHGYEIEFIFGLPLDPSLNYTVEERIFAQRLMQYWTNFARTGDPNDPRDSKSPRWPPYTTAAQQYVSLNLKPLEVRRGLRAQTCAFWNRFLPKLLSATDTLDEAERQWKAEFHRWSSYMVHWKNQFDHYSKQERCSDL
Procedure: The method described below was used in this invention for assaying cholinesterase activity. This is a modification of the method of Ellman et al., Biochem. Pharmacol. 7, 98 (1961).
• A. Reagents - • 1. 0.05 M Phosphate buffer, pH 7.2 • (a) 6.85 g NaH2PO4•H2O/100 ml distilled H2O • (b) 13.40 g Na2HPO4•7H2O/100 ml distilled H2O • (c) add (a) to (b) until pH reaches 7.2 • (d) Dilute 1:10 • 2. Substrate in buffer • (a) 198 mg acetylthiocholine chloride (10 mM) • (b) q.s to 100 ml with 0.05 M phosphate buffer, pH 7.2 (reagent 1) • 3. DTNB in buffer • (a) 19.8 mg 5,5-dithiobisnitrobenzoic acid (DTNB) (0.5 mM) • (b) q.s. to 100 ml with 0.05 M phosphate buffer, pH 7.2 (reagent 1) • 4. A 2 mM stock solution of the test drug is made up in a suitable solvent and q.s. to volume with 0.5 mM DTNB (reagent 3). Drugs are serially diluted (1:10) such that the final concentration (in cuvette) is 10^-4 M and screened for activity. If active, IC50 values are determined from the inhibitory activity of subsequent concentrations. • B. Tissue Preparation- Male Wistar rats are decapitated, brains rapidly removed, copora striata disected free, weighed and homogenized in 19 volumes (approximately 7 mg protein/ml) of 0.05 M phosphate buffer, pH 7.2 using a Potter-Elvehjem homogenizer. A 25 microliter aliquot of the homogenate is added to 1.0 milliter vehicle or various concentrations of the test drug and preincubated for 10 minutes at 37°C. • C. Assay- Enzyme activity is measured with the Beckman DU-50 spectrophotometer. This method can be used for IC50 determinations and for measuring kinetic constants. Instruments Settings • Kinetics Soft-Pac Module #598273 (10) • Program #6 Kindata: • Source - Vis • Wavelength - 412 nm • Sipper - none • Cuvettes - 2 ml cuvettes using auto 6-sampler • Blank - 1 for each substrate concentration • Interval time - 15 seconds (15 or 30 seconds for kinetics) • Total time - 5 minutes (5 or 10 minutes for kinetics) • Plot - yes • Span - autoscale • Slope - increasing • Results - yes (gives slope) • Factor - 1
Reagents are added to the blank and sample cuvettes as follows: Blank: 0.8 ml Phosphate Buffer/DTNB 0.8 ml Buffer/Substrate Control: 0.8 ml Phosphate Buffer/DTNB/Enzyme 0.8 ml Phosphate Buffer/Substrate Drug: 0.8 ml Phosphate Buffer/DTNB/Drug/ Enzyme 0.8 ml Phosphate Buffer/Substrate Blank values are determined for each run to control for non-enzymatic hydrolysis of substrate and these values are automatically subtracted by the kindata program available on kinetics soft-pac module. This program also calculates the rate of absorbance change for each cuvette.
Substrate concentration is 10 mM diluted 1:2 in assay yielding final concentration of 5 mM.

[6] = test system: [^3H]norepinephrine release; experiment: [3H]norepinephrine release in vitro; format: biochemical, Rat; settings: Compound A at 100 µM
[7] = target: butyrylcholinesterase (Homo sapiens, UniProt P06276); settings: relative to physostigmine
Sequence of butyrylcholinesterase (P06276 29-602): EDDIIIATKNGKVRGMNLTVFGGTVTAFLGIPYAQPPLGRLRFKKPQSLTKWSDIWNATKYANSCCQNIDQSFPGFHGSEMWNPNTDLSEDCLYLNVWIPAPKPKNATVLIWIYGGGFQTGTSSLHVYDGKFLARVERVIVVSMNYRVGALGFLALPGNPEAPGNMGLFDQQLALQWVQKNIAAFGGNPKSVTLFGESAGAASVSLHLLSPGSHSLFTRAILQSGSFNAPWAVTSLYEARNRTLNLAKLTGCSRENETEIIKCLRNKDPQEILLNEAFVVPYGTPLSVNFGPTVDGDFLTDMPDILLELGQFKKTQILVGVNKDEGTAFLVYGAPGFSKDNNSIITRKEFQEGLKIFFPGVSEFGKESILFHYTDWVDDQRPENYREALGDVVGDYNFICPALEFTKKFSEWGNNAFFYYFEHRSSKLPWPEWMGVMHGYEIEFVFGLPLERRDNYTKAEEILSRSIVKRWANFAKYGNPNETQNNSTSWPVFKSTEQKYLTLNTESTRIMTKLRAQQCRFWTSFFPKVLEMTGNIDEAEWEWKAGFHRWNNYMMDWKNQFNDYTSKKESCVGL

[8] = 0.01 mg/kg/min i.v. during alpha and beta receptor blockade
[9] = 0.01 mg/kg/min. i.v., anesthetized dog
[10] = 0.1 mg/kg/min. i.v., anesthetized dog

Compound	oral absorption / bioavailability [2]	TRP [3, 9] [%]	dP/dT [3, 9]	TRP [3, 10]	dP/dT [3, 10]	CO [3, 10]	HR [3, 9] [%]	HR [3, 10] [%]	MAP [3, 9] [%]	MAP [3, 10]	compound remaining after incubation with human plasma [4]	also measured
CNC(=O)Oc1ccc2c(c1)[C@]1(C)CCN(C)[C@@H]1N2C [physostigmine]	so poorly bioavailable by the oral route that pharmacokinetic data was not available	-34	-32%	-48%	-80%	-79%	-49	-82	-49	-78%	completely destroyed	mortality (dogs) [1, 8]: 3 out of 3; time to mortality [1, 8]: 17 to 29 min; mortality ([3]; 0.01 mg/kg/min i.v., intact alpha and beta adrenergic receptors): no mortality; ECG [3, 10]: A-V block inc. T wave; CO [3, 9]: -23%; LVEDP [3, 9]: +5mmHG; LVEDP [3, 10]: +8mmHG; RAP [3, 9]: +5mmHG; RAP [3, 10]: +8mmHG
(3aS-cis)-1,2,3,3a,8,8a-hexahydro-1,3a,8-trimethylpyrrolo[2,3-b]indol-5-ol,(1,2,3,4-tetrahydroisoquinolinyl)carbamate [Compound A]	rapidly absorbed orally	-18	+37%	+61%	+38%	+40%	-12	-13	-12	+54%	approximately 70%	accumulation effect on repeated administration ([5]; 20 mg/kg for four days in rats): no accumulation effect; inhibition of rat brain AChE ex vivo ([5]; 20 mg/kg, 4 hours after oral administration): significantly inhibitied; inhibition of rat brain AChE ex vivo ([5]; 20 mg/kg, 6 hours after oral administration): significantly inhibitied; inhibition of rat brain AChE ex vivo ([5]; 20 mg/kg, 24 hours after oral administration): not statistically significant; inhibition of rat brain AChE ex vivo ([5]; after oral administration): significant inhibition; [^3H]norepinephrine release in vitro [6]: stimulated; cardiac and hemodynamic effects ([1]; 0.1 mg/kg/min i.v. during alpha and beta adrenergic blockade): moderate decreases in blood pressure and cardiac output; potency as an inhibitor of butyrylcholinesterase, times less potent than physostigmine [7]: approximately 34 times

Source: patent EP0538248B1, “TETRAHYDROISOQUINOLINYLCARBAMATES OF 1,2,3,3A,8,8A-HEXAHYDRO-1,3A,8-TRIMETHYLPYRROLO [2,3-B]INDOLE” (priority 1990, dated 1992)
